Patent US20250073339A1, “CONJUGATES COMPRISING CLEAVABLE LINKERS” (priority 2023, published 2025)
Numbered stars: 1 amine (or outer) side, 2 acyl side, 3 side chain; on linkers, the order of the positions; unused ones are H or OH. Square brackets hold non-standard residues; d marks the D form. Peptide text beside a SMILES is read from it. * marks the point of attachment. X1 = O=C(O)[C@H]1O[C@@H](Oc2ccc(COC(=O)[*:2])cc2N[*:1])[C@H](O)[C@@H](O)[C@@H]1O; CH3O(CH2CH2O)11CH2CH2CO = COCCOCCOCCOCCOCCOCCOCCOCCOCCOCCOCCOCCC(=O)*; Dolaproine = CO[C@@H]([C@@H]1CCCN1)[C@@H](C)C(=O)O; Hexanoyl(6-maleimido) = O=C1C=CC(=O)N1CCCCCC(=O)*; Propanoyl(3-maleimido) = O=C1C=CC(=O)N1CCC(=O)*; Dil = CC[C@H](C)[C@H](NC)[C@@H](CC(=O)O)OC; PABC = O=C(OCc1ccc(N[*:1])cc1)[*:2]; X2 = C[C@@H](N*)[C@@H](O)c1ccccc1; Cit = NC(=O)NCCC[C@H](N)C(=O)O; NMeV = CN[C@H](C(=O)O)C(C)C; βAla = NCCC(=O)O

Legend:
Assay type in all cases: biochemical
[1] = target: T1, Human neutrophil elastase (Homo sapiens, UniProt P08246); experiment: Linker-Payload enzymatic cleavage with human neutrophil elastase; details: 0.67 μM enzyme, 67 μM Linker-Payload, pH 7.4, 37° C., 24 hours
T1 sequence (P08246 30-267): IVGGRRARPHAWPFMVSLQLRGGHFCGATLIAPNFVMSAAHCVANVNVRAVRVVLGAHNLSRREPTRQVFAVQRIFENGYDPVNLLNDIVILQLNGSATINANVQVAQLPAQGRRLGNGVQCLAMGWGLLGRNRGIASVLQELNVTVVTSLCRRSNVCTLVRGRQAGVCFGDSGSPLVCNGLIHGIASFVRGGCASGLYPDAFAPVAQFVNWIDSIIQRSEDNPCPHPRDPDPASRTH
Method: 0.67 μM Human neutrophil elastase was added to 67 μM Linker-Payload (1:100) in Tris Buffered Saline, pH 7.4. The mixture was incubated at 37° C. for a duration of 24 hours with intermediate timepoints collected and diluted 1:1 with buffer containing acetonitrile, water and formic acid. The sample was measured by reverse-phase HPLC with data quantified against a standard curve.

β-glucuronidase = target: T2, β-glucuronidase (Homo sapiens, UniProt P08236); experiment: Linker-Payload enzymatic cleavage with β-glucuronidase; details: 4 nM enzyme, 40 μM Linker-Payload, pH 5.0, 37° C., 24 hours; for cleavage in the presence of β-glucuronidase: FIG. 1A
T2 sequence (P08236 23-651): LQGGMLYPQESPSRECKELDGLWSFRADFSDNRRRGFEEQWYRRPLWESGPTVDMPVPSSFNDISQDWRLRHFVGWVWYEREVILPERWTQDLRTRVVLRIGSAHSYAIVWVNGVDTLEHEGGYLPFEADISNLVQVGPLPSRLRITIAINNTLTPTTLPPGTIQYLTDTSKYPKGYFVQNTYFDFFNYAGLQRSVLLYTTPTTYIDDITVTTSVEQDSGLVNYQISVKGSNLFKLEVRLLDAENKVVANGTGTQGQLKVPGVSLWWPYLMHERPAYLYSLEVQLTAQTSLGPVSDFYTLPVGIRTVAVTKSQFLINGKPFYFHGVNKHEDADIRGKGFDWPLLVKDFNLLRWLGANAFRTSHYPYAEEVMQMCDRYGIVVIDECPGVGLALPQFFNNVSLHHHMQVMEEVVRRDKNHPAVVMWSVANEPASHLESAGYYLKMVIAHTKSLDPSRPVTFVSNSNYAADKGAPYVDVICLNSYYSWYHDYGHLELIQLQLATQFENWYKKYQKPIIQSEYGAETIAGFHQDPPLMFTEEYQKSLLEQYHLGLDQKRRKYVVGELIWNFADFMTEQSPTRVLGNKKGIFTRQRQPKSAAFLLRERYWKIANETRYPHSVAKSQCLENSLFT
Method: 4 nM β-glucuronidase was added to 40 μM Linker-Payload (1:10,000) in 50 mM sodium acetate, pH 5.0. The mixture was incubated at 37° C. for a duration of 24 hours with intermediate timepoints collected and diluted 1:1 with buffer containing acetonitrile, water and formic acid. The sample was measured by reverse-phase HPLC with data quantified against a standard curve.

Cathepsin B = Cathepsin B (Homo sapiens, UniProt P07858); experiment: Linker-Payload enzymatic cleavage with cathepsin B; details: FIG. 1B; 0.14 μM enzyme, 70 μM Linker-Payload, pH 5.0, 37° C., 24 hours
Method: 0.14 μM Cathepsin B was added to 70 μM Linker-Payload (1:500) in 50 mM sodium acetate, 1 mM DTT, pH 5.0. The mixture was incubated at 37° C. for a duration of 24 hours with intermediate timepoints collected and diluted 1:1 with buffer containing acetonitrile, water and formic acid. The sample was measured by reverse-phase HPLC with data quantified against a standard curve.

| Structure (SMILES) | cleavage in the presence of human neutrophil elastase ([1]; FIG. 1C) | cleavage in the presence of β-glucuronidase (β-glucuronidase) | cleavage in the presence of β-glucuronidase relative to references (β-glucuronidase; FIG. 1E) | cleavage in the presence of human neutrophil elastase ([1]; FIG. 1D) | cleavage in the presence of cathepsin B (Cathepsin B) |
| --- | --- | --- | --- | --- | --- |
| CC[C@H](C)[C@@H]([C@@H](CC(=O)N1CCC[C@H]1[C@H](OC)[C@@H](C)C(=O)N[C@H](C)[C@@H](O)c1ccccc1)OC)N(C)C(=O)[C@@H](NC(=O)[C@H](C(C)C)N(C)C(=O)OCc1ccc(NC(=O)[C@H](CCCNC(N)=O)NC(=O)[C@@H](NC(=O)CCCCCN2C(=O)C=CC2=O)C(C)C)cc1)C(C)C [LP1, maleimidocaproyl-valine-citrulline-p-aminobenzoyloxycarbonyl-MMAE, reference compound] ({Hexanoyl(6-maleimido)}-V[Cit][PABC][NMeV]V[Dil][Dolaproine]-X2) | underwent more rapid cleavage | – | – | – | – |
| CC[C@H](C)[C@@H]([C@@H](CC(=O)N1CCC[C@H]1[C@H](OC)[C@@H](C)C(=O)N[C@H](C)[C@@H](O)c1ccccc1)OC)N(C)C(=O)[C@@H](NC(=O)[C@H](C(C)C)N(C)C(=O)OCc1ccc(O[C@@H]2O[C@H](C(=O)O)[C@@H](O)[C@H](O)[C@H]2O)c(CNC(=O)CCNC(=O)COC2(CNC(=O)CCN3C(=O)C=CC3=O)CN(C(=O)CCOCCOCCOCCOCCOCCOCCOCCOCCOCCOCCOCCOC)C2)c1)C(C)C [LP2] | did not undergo rapid cleavage | underwent significant cleavage | underwent slower cleavage than both LP7 (Reference) and LP8 (Reference) | did not undergo rapid cleavage | neither LP2 nor LP3 underwent rapid cleavage |
| CC[C@H](C)[C@@H]([C@@H](CC(=O)N1CCC[C@H]1[C@H](OC)[C@@H](C)C(=O)N[C@H](C)[C@@H](O)c1ccccc1)OC)N(C)C(=O)[C@@H](NC(=O)[C@H](C(C)C)N(C)C(=O)OCc1ccc(O[C@@H]2O[C@H](C(=O)O)[C@@H](O)[C@H](O)[C@H]2O)c(CNC(=O)COC2(CNC(=O)CCN3C(=O)C=CC3=O)CN(C(=O)CCOCCOCCOCCOCCOCCOCCOCCOCCOCCOCCOCCOC)C2)c1)C(C)C [LP3] | did not undergo rapid cleavage | underwent significant cleavage | – | – | neither LP2 nor LP3 underwent rapid cleavage |
| CC[C@H](C)[C@@H]([C@@H](CC(=O)N1CCC[C@H]1[C@H](OC)[C@@H](C)C(=O)N[C@H](C)[C@@H](O)c1ccccc1)OC)N(C)C(=O)[C@@H](NC(=O)[C@H](C(C)C)N(C)C(=O)OCc1ccc(O[C@@H]2O[C@H](C(=O)O)[C@@H](O)[C@H](O)[C@H]2O)c(CNC(=O)CCNC(=O)[C@H](CCCCNC(=O)CCOCCOCCOCCOCCOCCOCCOCCOCCOCCOCCOCCOC)NC(=O)CCN2C(=O)C=CC2=O)c1)C(C)C [LP7, reference compound] | – | – | – | did not undergo rapid cleavage | – |
| CC[C@H](C)[C@@H]([C@@H](CC(=O)N1CCC[C@H]1[C@H](OC)[C@@H](C)C(=O)N[C@H](C)[C@@H](O)c1ccccc1)OC)N(C)C(=O)[C@@H](NC(=O)[C@H](C(C)C)N(C)C(=O)OCc1ccc(O[C@@H]2O[C@H](C(=O)O)[C@@H](O)[C@H](O)[C@H]2O)c(NC(=O)CCNC(=O)[C@H](CCCCNC(=O)CCOCCOCCOCCOCCOCCOCCOCCOCCOCCOCCOCCOC)NC(=O)CCN2C(=O)C=CC2=O)c1)C(C)C [LP8, reference compound] ({Propanoyl(3-maleimido)}-K(CH3O(CH2CH2O)11CH2CH2CO)[βAla][X1][NMeV]V[Dil][Dolaproine]-X2) | – | – | – | did not undergo rapid cleavage | – |
